Experimental data reported in US20230027104A1, “NUTRITIONAL POWDER COMPRISING OLIGOPEPTIDES AND APPLICATIONS THEREOF” (Suzhou Jianyuan Biotechnology Co., Ltd., priority 2021, published 2023).
Marks after values point to notes of the source that are not given here.

Legend:
Type in all cases: in vivo, human
[1] = tested on: healthy middle-aged men and women; assay: Hangover cure and rehabilitation effect after excessive drinking of liquor (self-rated discomfort level); conditions: 1 cysteine tablet (1200 mg L-cysteine) before dinner
Method: (§1) Thirty-six healthy middle-aged men and women were chosen and divided into four groups, namely, the control group, the cysteine group, the 5 g oligopeptide nutrition group (prepared in Example 3) and the 10 g oligopeptide nutrition group (prepared in Example 3). Ten to twenty minutes before dinner (at time 18:00), 150 mL of plain boiled water at a temperature of 35° C. was prepared for each person in advance. In the control group, the subjects only drank plain boiled water; in the cysteine group, the subjects took 1 cysteine tablet (each comprising 1200 mg L-cysteine, produced by U.S. Now Food) when drinking water; in the 5 g oligopeptide nutritional group, the subjects put 5 g of the oligopeptide nutritional powder into a cup, poured 150 mL of plain boiled water, stirred to dissolve and drink; in the 10 g oligopeptide nutritional group, the subjects put 10 g of the oligopeptide nutritional powder into a cup, poured 150 mL of plain boiled water, stirred to dissolve and drink.
Dinners started at 18:00 and ended at 20:00. Each of 36 subjects drank 200 mL of liquor (Kweichow Moutai Liquor 2018, 53% vol. 106 PROOF) within two hours. […] All subjects' forms were collected, and the subjects' conditions were recorded and analyzed by classification.

[2] = tested on: healthy middle-aged men and women; assay: Hangover cure and rehabilitation effect after excessive drinking of red wine (self-rated discomfort level); conditions: 1 cysteine tablet (1200 mg L-cysteine) before dinner
Method: as §1, with “3), and they experienced the hangover cure and rehabilitation effect of the oligopeptide nutritional powder for excessive drinking of red wine.” for “3).”, “dinner,” for “dinner (at time 18:00),”, “person.” for “person in advance.”
Dinners started at 18:00 and ended at 20:00. Each of 36 subjects drank 400 mL of red wine (France Saint Arnaud Cabernet Sauvignon 2015, 13.5% vol. Cabernet Sauvignon). […] All subjects' forms were collected, and the subjects' conditions were recorded and analyzed by classification.

[3] = tested on: healthy middle-aged men and women; assay: Summary of hangover cure and rehabilitation effects on excessive drinking of liquor and red wine; conditions: liquor and red wine summarised, 1200 mg cysteine
Method: as §1
Dinners started at 18:00 and ended at 20:00. Each of 36 subjects drank 200 mL of liquor (Kweichow Moutai Liquor 2018, 53% vol. 106 PROOF) within two hours. The subjects' dinners were mainly Chinese stir-fried dishes, including fish, meat and vegetables, with rice as the staple food, and the dinners lasted two hours. In the next morning at 8:00 (12 hours after drinking) and in the third morning at 8:00 (36 hours after drinking), the subjects filled in the forms, indicating personal feelings. The personal feelings included 5 levels, namely, level 0 indicated no discomfort, level 1 indicated slight tiredness, level 2 indicated feeling of dizziness, level 3 indicated headache, level 4 indicated nausea or vomiting, requiring stay in bed. All subjects' forms were collected, and the subjects' conditions were recorded and analyzed by classification.
Thirty-six healthy middle-aged men and women were chosen and divided into four groups, namely, the control group, the cysteine group, the 5 g oligopeptide nutrition group (prepared in Example 3) and the 10 g oligopeptide nutrition group (prepared in Example 3), and they experienced the hangover cure and rehabilitation effect of the oligopeptide nutritional powder for excessive drinking of red wine. Ten to twenty minutes before dinner, 150 mL of plain boiled water at a temperature of 35° C. was prepared for each person. […]
Dinners started at 18:00 and ended at 20:00. […] All subjects' forms were collected, and the subjects' conditions were recorded and analyzed by classification.

[4] = Effect on blood alcohol content after drinking liquor or red wine (breath alcohol tester)
Method: Thirty healthy middle-aged men and women were chosen and divided into three groups, namely, the control group, the cysteine group and the 10 g oligopeptide nutrition group. After drinking liquor and red wine, the effects of the oligopeptide nutritional powder on the blood alcohol contents were compared. Ten to twenty minutes before dinner, 150 mL of plain boiled water at a temperature of 35° C. was prepared for each person. In the control group, the subjects only drank plain boiled water; in the cysteine group, the subjects took 1 cysteine tablet (each comprising 1200 mg L-cysteine, produced by U.S. Now Food) when drinking water; in the 10 g oligopeptide nutritional group, the subjects put 10 g of the oligopeptide nutritional powder into a cup, poured 150 mL of plain boiled water, stirred to dissolve and drink.
Dinners started at 18:00 and ended at 20:00. Each of 30 subjects drank 200 mL of liquor (Kweichow Moutai Liquor 2018, 53% vol. 106 PROOF) or 400 mL of red wine (France Saint Arnaud Cabernet Sauvignon 2015, 13.5% vol. Cabernet Sauvignon) within two hours. The subjects' dinners were mainly Chinese stir-fried dishes, including fish, meat and vegetables, with rice as the staple food, and the dinners lasted two hours. Every 30 minutes after the start of drinking, the breath alcohol tester (Mr. Black-03) was used to test the blood alcohol content of each subject for four hours, then test once every two hours; on the 16th hour after drinking, the test was over. The data of the subjects were recorded separately, and the statistical analysis of data was performed by groups. The blood alcohol metabolism curve of each group was completed by Gaussian Fitting method. For oligopeptide nutritional powder, after 4 hours of excessive drinking of liquor and red wine, namely, 2 hours after the end of meals, the blood alcohol content was measured, as shown in Table 3.

## N[C@@H](CS)C(=O)O [cysteine tablets, L-cysteine]
[1]; 12 hours after drinking 200 mL liquor
  subjects with obvious discomfort (>2 degree of discomfort): 44.4%
[1]; 36 hours after drinking 200 mL liquor
  subjects with obvious discomfort: 22.2%
[2]; 12 hours after drinking 400 mL red wine
  subjects with obvious discomfort (>2 degree of discomfort): 44.4%
[2]; 36 hours after drinking 400 mL red wine
  subjects with obvious discomfort: 22.2%
[3]
  Proportion of > degree 2 discomfort 12 hours after drinking wine: 44.4%
[3]; listed as Cysteine
  Proportion of > degree 2 discomfort 12 hours after drinking wine: 44.4%^b
  Proportion of > degree 2 discomfort 36 hours after drinking wine: 22.2%^a
[3]; listed as cysteine
  Proportion of > degree 2 discomfort 36 hours after drinking wine: 22.2%
[4]; 200 mL liquor, 1200 mg cysteine before dinner, breath alcohol tester
  Blood alcohol content 4 hours after drinking liquor: 42.3 ± 3.1^b mg/100 mL
[4]; 400 mL red wine, 1200 mg cysteine before dinner, breath alcohol tester
  Blood alcohol content 4 hours after drinking red wine: 38.7 ± 6.8^ab mg/100 mL
[4]; within 4 hours of drinking liquor or red wine, cysteine group (1200 mg)
  blood alcohol content versus alcohol content threshold for drunk driving: > 20 mg/100 mL
